Source: PMC11212260, “Next-generation neuropeptide Y receptor small-molecule agonists inhibit mosquito-biting behavior” (Parasites & Vectors, 2024)
Several values for one entry are separate records, joined by “and”; a condition that tells them apart may be missing. Equal entries are not always repeated. Where two headings read alike, the source gives them in different places.

What was measured:
Ae. aegypti NPYLR7 = Ae. aegypti NPYLR7 (Aedes aegypti, UniProt U5N1H5); test: In vitro calcium (GCaMP6s) FLIPR assay in HEK293T cells transfected with NPYLR7; assay type: cell-based; settings: for activation at 1.2346 µM / activation at 3.7037 µM / activation at 11.1111 µM / activation at 33.3333 µM / activation at 100 µM: HEK-293T, normalised response; for activation at 1.2346 µM / activation at 3.7037 µM / activation at 11.1111 µM / activation at 33.3333 µM: single replicate; for activation at 100 µM: single replicate of the dose-response curve
Chain of Ae. aegypti NPYLR7 (U5N1H5 entry or part of it): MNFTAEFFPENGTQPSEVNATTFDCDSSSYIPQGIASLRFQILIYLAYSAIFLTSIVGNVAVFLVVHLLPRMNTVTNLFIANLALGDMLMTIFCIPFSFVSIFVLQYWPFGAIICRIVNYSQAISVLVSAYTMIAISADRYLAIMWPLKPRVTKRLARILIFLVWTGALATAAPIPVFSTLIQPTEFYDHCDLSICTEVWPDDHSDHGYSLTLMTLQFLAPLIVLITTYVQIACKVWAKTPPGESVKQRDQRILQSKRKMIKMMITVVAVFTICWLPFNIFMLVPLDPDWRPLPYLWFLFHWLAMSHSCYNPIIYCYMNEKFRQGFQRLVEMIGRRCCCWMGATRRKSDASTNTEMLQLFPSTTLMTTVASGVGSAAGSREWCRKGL
Protocol: The in vitro screening assay was adapted from, and carried out at HD Biosciences (HDB, Shanghai) as follows: HEK293T (Thermo Fisher Scientific) cells were grown in Dulbecco’s modified Eagle medium (DMEM) (high glucose, with glutamine), 10% fetal bovine serum, 1% penicillin–streptomycin (Pen/Strep), seeded in a 75 cm^2 flask, and incubated at 37 °C and 5% CO2. Cells were transiently transfected with 1 μg of each plasmid expressing GCaMP6s (Addgene […]) (Chen et al., 2013), mouse Gqα15 (Addgene #40753) (Offermanns and Simon, 1995) and Ae. aegypti NPYLR7 (Addgene #52392) (Duvall et al. 2019) using Lipofectamine 2000 (Invitrogen) in 4 ml of Opti-MEM (Invitrogen). This mixture was added to a plate after 20 min and incubated for 6–8 h. Cells were then trypsinized, resuspended in phenol-free media, and plated in a 384-well plate (Greiner Bio-One) at a density of 20,000 cells per 40 μl, and incubated overnight (37 °C, 5% CO2). Cells were imaged directly in phenol-free media. Plates were loaded into a Molecular Devices fluorescence imaging plate reader (FLIPR) with an excitation wavelength of 470–495 nm and an emitted wavelength of 515–575 nm. Plates were imaged every second for 5 min. After 30 s of baseline fluorescence recording, 10 μl of the test compound in reading buffer [Hank’s Balanced Salt Solution (Gibco) + 20 mM HEPES (Sigma-Aldrich)] was added. Concentrations tested ranged from 0 to 100 μM. Data were collected in raw fluorescence units (RFU).
Each test plate included replicates of 10 μM FMRFa3 (H‐Ala‐Gly‐Gln‐Gly‐Phe‐Met‐Arg‐Phe‐NH2), an Ae. aegypti neuropeptide agonist of NPYLR7 used to calculate the hundred percent effect (HPE). The zero percent effect (ZPE) control was calculated as a response to buffer alone. The Z′ factor was calculated for each plate by Z^′=1-3σHPE+3σZPE/|μHPE-μZPE| . Plates with Z′ < 0.5 were excluded from analysis. Raw fluorescence units (RFU) were converted to percent effect relative to the average of the ZPE and HPE. Percent effect = (sample luminescence − average ZPE)/(average HPE − average ZPE)×100. […] Each replicate was plotted as percent effect versus log[concentration], and replicates with maximal responses between 20 and 250% were used for EC50 calculations. Relative EC50 was calculated using an [Agonist] versus response–variable slope four-parameter model where Y=Bottom+(X^Hillslope)∗(Top-Bottom)/(X^HillSlope+EC50^HillSlope) . For compounds with multiple replicates, the relative EC50 of each replicate was averaged.

[1] = test system: Aedes aegypti (Orlando strain) females; test: Host-seeking screening assay (miniport olfactometer); assay type: in vivo; settings: fed 1 μM in saline, tested 48 h post-meal; for Attraction (relative to saline): per-compound value of Fig. 3C
Protocol: (§1) Groups of 60–150 females were placed in bucket cages with a diameter of 21.6 cm and height of 16.5 cm (VWR) and fasted with access to water for 24 h prior to feeding. Meals were delivered to females via Glytube membrane feeders as described previously. Meals consisted of 1.5 ml sheep blood (HemoStat Laboratories), saline (400 mM NaHCO3 + dih2O), or saline and test compound. Lyophilized compounds were stored at room temperature until use. High-concentration stocks (30 mM in 100% dimethyl sulfoxide [DMSO]) (Sigma-Aldrich) were stored at −20 °C and diluted in saline immediately prior to feeding. Once prepared, meals and glycerol heating elements were warmed in a 42 °C water bath for 15 min to provide warmth to attract mosquitos to feed. ATP (1 mM final concentration) and test compounds (1 μM final concentration) were added prior to placing the meal on top of the mesh on the cage containing female mosquitos. Females were allowed 15–20 min to feed to repletion. Abdominal engorgement was scored by eye and confirmed by weighing females to ensure full feeding (Data S1). […] Females were returned to their original cage with a diH2O wick for 48 h prior to behavioral testing. The lethality of each compound was measured by counting the number of dead females in each cage 24 h post-meal.
Miniport olfactometers were fabricated in-house as described previously. Information regarding design, construction, and use can be found at https://github.com/VosshallLab/Miniport-Construction. Miniport canisters consisted of a 6″ × 3″ × 3″ acrylic tube with a mesh screen to allow for air flow. Groups of 10–20 females were loaded into canisters 24 h post-meal. Females were left in canisters overnight to acclimate with two cotton balls soaked in diH20 to prevent desiccation. Behavior trials began 48 h post-meal. Canisters were randomly assigned to attraction traps 1–4 and given 5 min to acclimate. The stimulus end of the trap was connected to a flowmeter that supplied 5% CO2 at a rate of 30 ml/min. Thirty seconds of CO2 flow was supplied to activate females prior to opening the sliding door. Once opened, the sliding door gave females access to the attraction trap baited with a human-scented nylon stocking previously worn by the same experimenter for 8–10 h to collect body odor and stored in a plastic bag at −20 °C until use. After 5 min, the sliding door was closed and attraction was scored as mosquitoes in the attraction trap/total number of mosquitoes. For each experiment data were normalized to the matched average saline attraction from the same experiment (% attracted/average saline attraction). Any dead mosquitoes were excluded from the analysis. Non-fed females and blood-fed females served as environmental control groups while the saline-fed females served as the vehicle control each day. If non-fed or saline-fed females were less than 50% attracted or if blood-fed females were more than 20% attracted behavioral trials were halted and all data from that experimental day were discarded.

[2] = test system: Aedes aegypti (Orlando strain) females; test: Glytube feeding: females feeding to repletion and weight per female (meal palatability); assay type: in vivo; settings: Supplemental Figure 1 Panel A; compounds of Fig 3; individual replicate values
Protocol: as §1
Supplementary file 13071_2024_6347_MOESM1_ESM.png: Supplementary Material 1: Figure 1. […] (A) Percent of females feeding to repletion and (B) weight per female after feeding on the indicated meal used for testing in Miniport olfactometer experiments in Figure 3B. (C) Percent of females feeding to repletion and (D) weight per female after feeding on the indicated meal used for testing in live host assays in Figure 4. Data are shown as mean with standard deviation. n = 2–22 replicate cages, 60–150 females/cage. Females were weighed in groups of five to ensure reliable readings. Kruskal–Wallis with Dunn’s multiple comparisons to saline-fed group, ns P > 0.01, * P < 0.01, *** P < 0.0001. (PNG 321 KB)

[3] = EC50 of the individual assay date/plate (assay date), read-out: EC50
[4] = Figure 1E Summary, third list (n = 39), read-out: Reported Metric (Summary list)
[5] = relative EC50, percent effect relative to 10 μM FMRFa3, read-out: EC50
[6] = sheet Figure 3C, unit inferred, read-out: EC50
[7] = summary EC50 per compound (mean over assay dates), the unit is taken from the neighbouring EC50 (uM) column, read-out: Reported Metric

SMILES | EC50 (Ae. aegypti NPYLR7; [3]) | EC50 (Ae. aegypti NPYLR7; [4]) | activation at 1.2346 µM (Ae. aegypti NPYLR7) | activation at 3.7037 µM (Ae. aegypti NPYLR7) | activation at 11.1111 µM (Ae. aegypti NPYLR7) | activation at 33.3333 µM (Ae. aegypti NPYLR7) | activation at 100 µM (Ae. aegypti NPYLR7) | EC50 (Ae. aegypti NPYLR7; [5]) | EC50 (Ae. aegypti NPYLR7; [6]) | EC50 (Ae. aegypti NPYLR7; [7]) | Host-seeking relative to saline (test compound % host-seeking/average matched saline % host-seeking) ([1]; individual replicates, listed as TDI-04178) | Attraction (relative to saline) [1] | % feeding (females feeding to repletion) [2] | EC50 (Ae. aegypti NPYLR7; Figure 1E Summary, second list (n = 48), read-out: Reported Metric (Summary list))
CCCOc1ccc2c(C)nc(NC(=N)N)nc2c1 [TDI-014178] | 2.25 µM | 2.25 µM | 42.7% | 66.7% | 86.6% | 96.4% | 100% | 2.25 µM | 2.25 µM | 2.25 µM | 0.93 and 1 | 0.93 | 49.19% | –
Cc1nc(NC(=N)N)nc2cc(OCC3CCCCC3)ccc12 [TDI-014169] | 4.43 µM | – | – | 42.2% | 78.4% | 94.5% | 113% | 4.44 µM | 4.43 µM | 4.43 µM | – | 1.025 | – | 4.43 µM
Cc1nc(NC(=N)N)nc2cc(OCC3CC3)ccc12 [TDI-014171] | 0.912 µM | 0.912 µM | 32.9% | 50.2% | 63.8% | – | 66.3% | 0.912 µM | 0.912 µM | 0.912 µM | – | 0.79 | – | –
